Measured values published in ChEMBL document CHEMBL1146256, “ATP-conjugated peptide inhibitors for calmodulin-dependent protein kinase II” (Bioorg Med Chem Lett, 2007).
Starred links: 1 amine or outer side, 2 acyl side, 3 side chain; linkers in the order of their positions; H or OH if unused. Non-standard residues stand in square brackets, D forms with d. Residues, ends and D or L forms follow the SMILES beside them. ξ: configuration not given here. *: point of attachment. X1 = Nc1ncnc2c1ncn2[C@@H]1O[C@H](COP(=O)(O)OP(=O)(O)OP(=O)(O)OC2CC(=O)N(CCOCCOCCOCCN3C(=O)CC(S[C@@H](N[*:1])C(=O)[*:2])C3=O)C2=O)[C@@H](O)[C@H]1O; Biotin = O=C1N[C@H]2[C@H](CS[C@H]2CCCCC(=O)*)N1; ξF = NC(Cc1ccccc1)C(=O)O

Assay: Inhibition of CaMK2
Parameters: species or system Homo sapiens

Row | IC50 | Compound
1 | 181 nM | CC(C)C[C@H](NC(=O)[C@H](C)NC(=O)[C@H](CC(=O)O)NC(=O)C(Cc1ccccc1)NC(=O)[C@H](C)NC(=O)[C@H](CCC(=O)O)NC(=O)[C@H](CCC(N)=O)NC(=O)[C@H](CCCNC(=N)N)NC(=O)[C@H](CCCNC(=N)N)NC(=O)[C@H](CC(C)C)NC(=O)[C@H](CCCCN)NC(=O)[C@H](CCCCN)NC(=O)[C@H](CCCCN)NC(=O)CCCC[C@@H]1SC[C@@H]2NC(=O)N[C@@H]21)C(=O)N[C@H](SC1CC(=O)N(CCOCCOCCOCCN2C(=O)CC(OP(=O)(O)OP(=O)(O)OP(=O)(O)OC[C@H]3O[C@@H](n4cnc5c(N)ncnc54)[C@H](O)[C@@H]3O)C2=O)C1=O)C(=O)O (some centres undefined) (Biotin-KKKLRRQEA[ξF]DAL[X1]-OH)
2 | 4000 nM | H-KKALRRQEAGDAL-OH
3 | 18000 nM | CC(C)C[C@H](NC(=O)[C@H](C)NC(=O)[C@H](CCCCN)NC(=O)[C@H](CCCCN)NC(=O)CCCC[C@@H]1SC[C@@H]2NC(=O)N[C@@H]21)C(=O)N[C@@H](CCCNC(=N)N)C(=O)N[C@@H](CCCNC(=N)N)C(=O)N[C@@H](CCC(N)=O)C(=O)N[C@@H](CCC(=O)O)C(=O)N[C@@H](C)C(=O)NCC(=O)N[C@@H](CC(=O)O)C(=O)N[C@@H](C)C(=O)N[C@@H](CC(C)C)C(=O)N[C@H](SC1CC(=O)N(CCOCCOCCOCCN2C(=O)CC(OP(=O)(O)OP(=O)(O)OP(=O)(O)OC[C@H]3O[C@@H](n4cnc5c(N)ncnc54)[C@H](O)[C@@H]3O)C2=O)C1=O)C(=O)O (some centres undefined) (Biotin-KKALRRQEAGDAL[X1]-OH)

Second part, the compound before the results:

Row | Compound | IC50
4 | CC(C)C[C@H](NC(=O)[C@H](C)NC(=O)[C@H](CC(=O)O)NC(=O)[C@H](Cc1ccccc1)NCC(=O)[C@H](CNC(=O)CCOP(=O)(O)OP(=O)(O)OP(=O)(O)OC[C@@H]1O[C@H](n2cnc3c(N)ncnc32)[C@@H](O)[C@H]1O)NC(=O)[C@H](CCC(=O)O)NC(=O)[C@H](CCC(N)=O)NC(=O)[C@H](CCCNC(=N)N)NC(=O)[C@H](CCCNC(=N)N)NC(=O)[C@H](CC(C)C)NC(=O)[C@H](CCCCN)NC(=O)[C@H](CCCCN)NC(=O)[C@H](CCCCN)NC(=O)CCCC[C@@H]1SC[C@@H]2NC(=O)N[C@@H]21)C(=O)O | 22 nM
5 | H-KKKLRRQEAFDAL-OH | 76 nM
6 | CC(C)C[C@H](NC(=O)[C@H](C)NC(=O)[C@H](CC(=O)O)NC(=O)[C@@H](NCC(=O)[C@H](CNC(=O)CCOP(=O)(O)OP(=O)(O)OP(=O)(O)OC[C@@H]1O[C@H](n2cnc3c(N)ncnc32)[C@@H](O)[C@H]1O)NC(=O)[C@H](CCC(=O)O)NC(=O)[C@H](CCC(N)=O)NC(=O)[C@H](CCCNC(=N)N)NC(=O)[C@H](CCCNC(=N)N)NC(=O)[C@H](CC(C)C)NC(=O)[C@H](C)NC(=O)[C@H](CCCCN)NC(=O)[C@H](CCCCN)NC(=O)CCCC[C@@H]1SC[C@@H]2NC(=O)N[C@@H]21)C(C)C)C(=O)O | 67 nM
7 | CC(C)C[C@H](NC(=O)[C@H](C)NC(=O)[C@H](CCCCN)NC(=O)[C@H](CCCCN)NC(=O)CCCC[C@@H]1SC[C@@H]2NC(=O)N[C@@H]21)C(=O)N[C@@H](CCCNC(=N)N)C(=O)N[C@@H](CCCNC(=N)N)C(=O)N[C@@H](CCC(N)=O)C(=O)N[C@@H](CCC(=O)O)C(=O)N[C@@H](C)C(=O)N[C@H](C(=O)N[C@@H](CC(=O)O)C(=O)N[C@@H](C)C(=O)N[C@@H](CC(C)C)C(=O)N[C@H](SC1CC(=O)N(CCOCCOCCOCCN2C(=O)CC(OP(=O)(O)OP(=O)(O)OP(=O)(O)OC[C@H]3O[C@@H](n4cnc5c(N)ncnc54)[C@H](O)[C@@H]3O)C2=O)C1=O)C(=O)O)C(C)C (some centres undefined) (Biotin-KKALRRQEAVDAL[X1]-OH) | 305 nM
8 | H-KKALRRQEAVDAL-OH | 320 nM
9 | CC(C)C[C@H](NC(=O)[C@H](C)NC(=O)[C@H](CC(=O)O)NC(=O)CNCC(=O)[C@H](CNC(=O)CCOP(=O)(O)OP(=O)(O)OP(=O)(O)OC[C@@H]1O[C@H](n2cnc3c(N)ncnc32)[C@@H](O)[C@H]1O)NC(=O)[C@H](CCC(=O)O)NC(=O)[C@H](CCC(N)=O)NC(=O)[C@H](CCCNC(=N)N)NC(=O)[C@H](CCCNC(=N)N)NC(=O)[C@H](CC(C)C)NC(=O)[C@H](C)NC(=O)[C@H](CCCCN)NC(=O)[C@H](CCCCN)NC(=O)CCCC[C@@H]1SC[C@@H]2NC(=O)N[C@@H]21)C(=O)O | 1320 nM
